From patent publication EP0677039B1, “CYCLOBUTANE DERIVATIVES AS INHIBITORS OF […] SYNTHETASE AND PROTEIN […]” (Abbott Laboratories, priority 1993, dated 1995)

Columns and labels:
Cholesterol Synthesis = assay: In vivo inhibition of cholesterol synthesis; details: Cynomolgus monkeys, 2 males and 2 females per group, 20 mg/kg, po, daily for a total of 5 days; average
Experimental: Monkeys, Cynomolgus, 2 males and 2 females per group, Controls: 3.7-6.1 Kg body weight, Dosed animals: 4.8-5.6 Kg body weight) were fasted overnight and bled in the morning. Plasma samples were prepared and analyzed for total cholesterol, HDL-cholesterol and triglycerides. […] Dosing was continued daily for a total of 5 days. Prior to the last dose the animals were fasted overnight and bled after dosing but before feeding. Plasma samples (anticoagulated with EDTA) were prepared and analyzed as before. One-sample t-tests were calculated to test for significant change within a group across the experiment.

[1] = molecular target: T1, Rat liver microsomal squalene synthetase (Rattus norvegicus, UniProt Q02769); assay: In vitro inhibition of squalene synthetase; assay type: biochemical; details: rat liver microsomes, labelled farnesyl pyrophosphate, 10 minutes at 37 °C
T1 construct: Rat liver microsome, the source of enzyme; from tissue; host or cells: rat liver microsomes
T1 sequence (Q02769 1-416): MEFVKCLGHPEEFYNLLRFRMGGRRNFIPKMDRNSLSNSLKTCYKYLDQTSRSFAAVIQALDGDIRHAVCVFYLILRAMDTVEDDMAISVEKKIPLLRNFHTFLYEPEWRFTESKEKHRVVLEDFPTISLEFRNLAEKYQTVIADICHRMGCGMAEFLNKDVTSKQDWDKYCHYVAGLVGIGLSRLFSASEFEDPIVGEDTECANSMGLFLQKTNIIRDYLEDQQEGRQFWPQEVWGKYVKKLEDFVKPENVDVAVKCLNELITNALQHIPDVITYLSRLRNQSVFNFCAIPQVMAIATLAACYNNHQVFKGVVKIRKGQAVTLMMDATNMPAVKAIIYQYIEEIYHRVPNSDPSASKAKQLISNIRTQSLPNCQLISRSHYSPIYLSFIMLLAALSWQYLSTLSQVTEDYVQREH
Summary of the method: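 Percent inhibition at 10 µM (or 1 µM), against controls without compound, was scored from radioactive squalene formed from labelled farnesyl pyrophosphate by rat liver microsomal enzyme. Incubations were kept oxygen-free with nitrogen and stopped with ethanolic KOH; squalene was isolated by hexane extraction and an alumina column.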

[2] = 10 µM test compound, compared to controls with no test compound
[3] = values marked * in Table 1: 1 µM test compound

CCCN(Cc1ccc(Oc2ccccc2)cc1)C(=O)[C@H]1[C@@H](C(=O)O)[C@H](C(=O)O)[C@@H]1C(=O)N(CCC)Cc1ccc(Oc2ccccc2)cc1 (racemic) [Example 17, (1α,2β,3β,4α)-1,2-Di[N-propyl-N-(4-phenoxybenzyl)aminocarbonyl]cyclobutane-3,4-dicarboxylic acid]
Total plasma cholesterol was lowered (Cholesterol Synthesis): 15.5%

O=C(O)[C@H]1[C@H](C(=O)O)[C@H](C(=O)N(CCc2ccccc2)Cc2ccc(Oc3ccccc3)cc2)[C@H]1C(=O)N(CCc1ccccc1)Cc1ccc(Oc2ccccc2)cc1 [Example 56, (1α,2β,3β,4α)-1,2-Di[N-(4-phenoxybenzyl)-N-phenethylaminocarbonyl] cyclobutane-3,4-dicarboxylic acid]
inhibition at 10 µM [1, 2]: 86%

O=C(O)C1C(C(=O)O)C(C(=O)N(CCF)Cc2ccc(Oc3ccccc3)cc2)C1C(=O)N(CCF)Cc1ccc(Oc2ccccc2)cc1 (stereo not drawn) [Example 43, (1α,2β,3β,4α)-1,2-Di[N-(2-fluoroethyl)-N-(4-phenoxybenzyl)aminocarbonyl]cyclobutane-3,4-dicarboxylic acid]
inhibition at 1 µM [1, 3]: 47%

O=C(O)C1C(C(=O)O)C(C(=O)N(Cc2ccccc2)Cc2ccccc2)C1C(=O)N(Cc1ccccc1)Cc1ccccc1 (stereo not drawn) [Example 121, (1α,2β,3β,4α)-1,2-Di[N,N-dibenzylaminocarbonyl]cyclobutane-3,4-dicarboxylic acid]
inhibition at 10 µM [1, 2]: 44%

COc1cccc(CCN(Cc2ccc(Oc3ccccc3)cc2)C(=O)C2C(C(=O)O)C(C(=O)O)C2C(=O)N(CCc2cccc(OC)c2)Cc2ccc(Oc3ccccc3)cc2)c1 (stereo not drawn) [Example 54B, (1α,2β,3β,4α)-1,2-Di[N-(4-phenoxybenzyl)-N-(3-methoxyphenethyl)aminocarbonyl]cyclobutane-3,4-dicarboxylic acid]
inhibition at 10 µM [1, 2]: 74%

(1α,2β,3β,4α)-1,2-Di[N-propyl-N-(4-phenoxybenzyl)aminocarbonyl]cyclobutane-3-phenoxycarbonyl-4-carboxylic acid [Example 105A]
% Inhibition at 1 µM ([1]; values marked * in Table 1: 1 µM test compound, 1 µM): 48* %

(1α,2β,3β,4α)-1,2-Di[N-propyl-N-(4-phenoxybenzyl)aminocarbonyl]-3,4-di[(hydroxyimino)methyl]-cyclobutane [Example 79B]
% Inhibition at 10 µM [1, 2]: 83%

O=C(O)[C@H]1[C@H](C(=O)O)[C@H](C(=O)N(Cc2ccc(Oc3ccccc3)cc2)CC2CCCCC2)[C@H]1C(=O)N(Cc1ccc(Oc2ccccc2)cc1)CC1CCCCC1 [Example 31]
inhibition at 1 µM [1, 3]: 37%

CCCN(Cc1cccc(Oc2ccccc2)c1)C(=O)C1C(C(=O)O)C(C(=O)O)C1C(=O)N(CCC)Cc1cccc(Oc2ccccc2)c1 (stereo not drawn) [Example 81B, (1α,2β,3β,4α)-1,2-Di[N-propyl-N-(3-phenoxybenzyl)aminocarbonyl]cyclobutane-3.4-dicarboxylic acid]
inhibition at 10 µM [1, 2]: 73%
